According to patent publication US20240148821A1, “PHARMACEUTICAL USE OF CYCLIC PEPTIDE COMPOUND” (CHUGAI SEIYAKU KABUSHIKI KAISHA, priority 2021, published 2024):
Bridge positions count the residues as written; N and C are the ends. Square brackets hold non-standard residues; d marks the D form. Peptide text beside a SMILES is read from it. * marks the point of attachment. hPhe(3-Cl-4-CF3) = N[C@@H](CCc1ccc(C(F)(F)F)c(Cl)c1)C(=O)O; hPhe(3-F,4-CF3) = N[C@@H](CCc1ccc(C(F)(F)F)c(F)c1)C(=O)O; NMeAla(4-thiazolyl) = CN[C@@H](Cc1cscn1)C(=O)O; NMePhe(4-Cl) = CN[C@@H](Cc1ccc(Cl)cc1)C(=O)O; NMePhe(4-Me) = CN[C@@H](Cc1ccc(C)cc1)C(=O)O; NMePhe(4-F) = CN[C@@H](Cc1ccc(F)cc1)C(=O)O; hPhe(4-Cl) = N[C@@H](CCc1ccc(Cl)cc1)C(=O)O; NMeGly(cPent) = CN[C@H](C(=O)O)C1CCCC1; Phe(3-I) = N[C@@H](Cc1cccc(I)c1)C(=O)O; NMeY = CN[C@@H](Cc1ccc(O)cc1)C(=O)O; NMeCha = CN[C@@H](CC1CCCCC1)C(=O)O; NMeGly(cPr) = CN[C@H](C(=O)O)C1CC1; NMeF = CN[C@@H](Cc1ccccc1)C(=O)O; NMeI = CC[C@H](C)[C@H](NC)C(=O)O; NMeD = CN[C@@H](CC(=O)O)C(=O)O; NMeL = CN[C@@H](CC(C)C)C(=O)O; NMeV = CN[C@H](C(=O)O)C(C)C; d(β3hA) = C[C@@H](N)CC(=O)O; NMeS = CN[C@@H](CO)C(=O)O; Pip = O=C(O)[C@@H]1CCCCN1; NMeA = CN[C@@H](C)C(=O)O; Nle = CCCC[C@H](N)C(=O)O; Piperidide = C1CCN(*)CC1; Ac5c = NC1(C(=O)O)CCCC1; Aze = O=C(O)[C@@H]1CCN1; CF3 = FC(F)(F)*; Sar = CNCC(=O)O

test system: Human pancreatic cancer cell line AsPC-1 (G12D mutation Kras); assay: AsPC-1 cell growth inhibition (AsPC-1 CGI); type: cell-based; details: read-out: AsPC-1 cell growth inhibition, 50% growth inhibitory concentration (IC50 value); 96 hours, CellTiter-Glo, values classified in ranges
Protocol: Test compounds were serially dilated with dimethyl sulfoxide, and 200 nL was then dispensed to a U-bottom 96-well plate using Labcyte Echo. […] The cell suspension was dispensed to a. plate containing a test compound at 100 μL per well and incubated at 37° C. in a 5% carbon dioxide gas incubator. 96 hours later, 80 μL of CellTiter-Glo (Promega) was added to each well and fluorescence was measured.

Row | Structure (SMILES) | IC50 [nM]
1 | CCCC[C@@H]1NC(=O)[C@H](Cc2cccc(I)c2)NC(=O)CN(C)C(=O)[C@H](Cc2ccc(Cl)cc2)N(C)C(=O)CN(C)C(=O)CN(C)C(=O)[C@H]([C@@H](C)CC)NC(=O)[C@H](CC(C)C)N(C)C(=O)C[C@@H](C(=O)N2CCCCC2)N(C)C(=O)[C@H](CC(C)C)NC(=O)[C@H](Cc2ccc(OC(F)(F)F)cc2)N(C)C1=O [Compound 819] ([NMeL]I[Sar][Sar][NMePhe(4-Cl)][Sar][Phe(3-I)][Nle][NMeY](CF3)L[NMeD]-Piperidide; lactam N-11) | > 500
2 | CC[C@H](C)[C@@H]1NC(=O)[C@H](C)N(C)C(=O)C[C@@H](C(=O)N2CCCCC2)N(C)C(=O)[C@H](C(C)C)N(C)C(=O)C2(CCCC2)NC(=O)[C@H](Cc2ccc(F)cc2)N(C)C(=O)[C@H](CCc2ccc(C(F)(F)F)c(Cl)c2)NC(=O)CN(C)C(=O)[C@H](CC2CCCCC2)N(C)C(=O)CN(C)C(=O)CN(C)C1=O [Compound 821] ([NMeA]I[Sar][Sar][NMeCha][Sar][hPhe(3-Cl-4-CF3)][NMePhe(4-F)][Ac5c][NMeV][NMeD]-Piperidide; lactam N-11) | > 500
3 | CC[C@H](C)[C@@H]1NC(=O)[C@@H]2CCCCN2C(=O)C[C@@H](C(=O)N2CCCCC2)N(C)C(=O)[C@H](C(C)C)N(C)C(=O)C2(CCCC2)NC(=O)[C@@H]2CCCN2C(=O)[C@H](CCc2ccc(Cl)cc2)NC(=O)CN(C)C(=O)[C@H](CC2CCCCC2)N(C)C(=O)CN(C)C(=O)CN(C)C1=O [Compound 841] ([Pip]I[Sar][Sar][NMeCha][Sar][hPhe(4-Cl)]P[Ac5c][NMeV][NMeD]-Piperidide; lactam N-11) | > 500
4 | CC[C@H](C)[C@@H]1NC(=O)[C@H](C2CC2)N(C)C(=O)C[C@@H](C)NC(=O)[C@H](C(C)C)N(C)C(=O)C2(CCCC2)NC(=O)[C@@H]2CCCN2C(=O)[C@H](CCc2ccc(C(F)(F)F)c(Cl)c2)NC(=O)CN(C)C(=O)[C@H](CC2CCCCC2)N(C)C(=O)CN(C)C(=O)CN(C)C1=O [Compound 844] (cyclo([Ac5c][NMeV][d(β3hA)][NMeGly(cPr)]I[Sar][Sar][NMeCha][Sar][hPhe(3-Cl-4-CF3)]P)) | > 500
5 | CC[C@H](C)[C@@H]1NC(=O)[C@H](CC(C)C)N(C)C(=O)C[C@@H](C(=O)N2CCCCC2)N(C)C(=O)[C@H](COC)N(C)C(=O)C2(CCCC2)NC(=O)[C@@H]2CCCN2C(=O)[C@H](CCc2ccc(C(F)(F)F)c(Cl)c2)NC(=O)CN(C)C(=O)[C@H](CC2CCCCC2)N(C)C(=O)CN(C)C(=O)CN(C)C1=O [Compound 850] ([NMeL]I[Sar][Sar][NMeCha][Sar][hPhe(3-Cl-4-CF3)]P[Ac5c][NMeS](Me)[NMeD]-Piperidide; lactam N-11) | > 500
6 | CC[C@H](C)[C@@H]1NC(=O)[C@H](C(C)C)N(C)C(=O)C[C@@H](C)NC(=O)[C@H](CC(C)C)N(C)C(=O)C2(CCCC2)NC(=O)[C@H](CC(C)C)N(C)C(=O)[C@H](CCc2ccc(C(F)(F)F)c(F)c2)NC(=O)CN(C)C(=O)[C@H](Cc2ccc(Cl)cc2)N(C)C(=O)CN(C)C(=O)CN(C)C1=O [Compound 851] (cyclo([Ac5c][NMeL][d(β3hA)][NMeV]I[Sar][Sar][NMePhe(4-Cl)][Sar][hPhe(3-F,4-CF3)][NMeL])) | > 500
7 | CC[C@H](C)[C@@H]1NC(=O)[C@H](CC(C)C)N(C)C(=O)C[C@@H](C(=O)N(C)C)N(C)C(=O)[C@H]([C@@H](C)CC)N(C)C(=O)[C@H](C)NC(=O)[C@H](Cc2cscn2)N(C)C(=O)[C@H](CCc2ccc(C(F)(F)F)c(Cl)c2)NC(=O)CN(C)C(=O)[C@H](Cc2ccc(C)cc2)N(C)C(=O)[C@@H]2CCN2C(=O)[C@H](C)N(C)C1=O [Compound 856] ([NMeL]I[NMeA][Aze][NMePhe(4-Me)][Sar][hPhe(3-Cl-4-CF3)][NMeAla(4-thiazolyl)]A[NMeI][NMeD]-NMe2; lactam N-11) | > 500
8 | CC[C@H](C)[C@@H]1NC(=O)[C@H](C2CCCC2)N(C)C(=O)C[C@@H](C)NC(=O)[C@H](C(C)C)N(C)C(=O)C2(CCCC2)NC(=O)[C@@H]2CCCN2C(=O)[C@H](CCc2ccc(C(F)(F)F)c(Cl)c2)NC(=O)CN(C)C(=O)[C@H](CC2CCCCC2)N(C)C(=O)CN(C)C(=O)CN(C)C1=O [Compound 857] (cyclo([Ac5c][NMeV][d(β3hA)][NMeGly(cPent)]I[Sar][Sar][NMeCha][Sar][hPhe(3-Cl-4-CF3)]P)) | > 500
9 | CC[C@H](C)[C@@H]1NC(=O)[C@H](C)N(C)C(=O)C[C@@H](C(=O)N2CCCCC2)NC(=O)[C@H](CC(C)C)N(C)C(=O)[C@H](Cc2ccccc2)N(C)C(=O)[C@H](CC(C)C)NC(=O)[C@H](CCc2ccc(C(F)(F)F)c(Cl)c2)NC(=O)CN(C)C(=O)[C@H](Cc2ccc(Cl)cc2)N(C)C(=O)CN(C)C(=O)CN(C)C1=O [Compound 861] ([NMeA]I[Sar][Sar][NMePhe(4-Cl)][Sar][hPhe(3-Cl-4-CF3)]L[NMeF][NMeL]D-Piperidide; lactam N-11) | > 500
